Source: US20080254439A1, “Plant Extract and Use Thereof as a Cryoprotective Agent” (priority 2005, published 2008)

What was measured:
[1] = test system: isolated rat hepatocytes; test: Viability of suspensions of rat hepatocytes after freezing, calcein/PI test by flow cytometry; assay type: cell-based; conditions: 7 days of freezing; 1.5×10^6 cells/ml; 20 mg protein/extract or 15% DMSO in WME; FIG. 1
Protocol: Hepatocytes were isolated from male Sprague-Dawley rats (120-180 g), obtained from Charles River Canada (Saint-Constant, QC), in a two-step collagenase digestion technique (13; 14). […] Cell viability was evaluated by flow cytometry (FACScan™, Becton Dickinson, Oakville, ON) with 2 μM PI (16).
Cryopreservation of isolated hepatocytes. Immediately after isolation, the hepatocyte suspension was added to a mixture of ice-cold WME medium supplemented with 10% FBS and non-acclimated (NA) or CA wheat protein extracts (WPEs) in cold cryovials. […] The tubes containing cells were then frozen at a cooling rate of 1° C./min in a controlled freezing container (Nalgene, Rochester, N.Y.) to −80° C. for one day, and then transferred to liquid nitrogen.
Viability assays. After freeze/thaw cycles, hepatocyte suspensions were stained with the fluorescent probes 4 μM calcein and 2 μM PI in WME medium for 5 minutes. The samples were analyzed by flow cytometry (excitation at 488 nm) using a Becton Dickinson FACScan™. The number of live cells expressing green fluorescence of calcein and the number of dead cells expressing red fluorescence of PI were determined with Cell Quest™ software (Becton Dickinson, Oakville, ON).

[2] = test system: rat hepatocytes; test: Viability of seeded thawed hepatocytes by LDH release; assay type: cell-based; conditions: after 24 h in culture; cryopreserved 7 days; FIG. 2
[3] = test system: rat hepatocytes; test: Plating efficiency by LDH activity; assay type: cell-based; conditions: culture period 3 hours
Protocol: Thawing of cryopreserved hepatocytes. The frozen hepatocytes were thawed quickly by gentle agitation in a 37° C. water bath. Viability assays were performed on the hepatocyte suspension. For adherence and metabolic assays, the hepatocyte suspension was diluted 10-fold by addition of cold WME medium, immediately after thawing. […] After centrifugation (4° C., 50 g, 2 min), hepatocytes were suspended in 10 ml of WME medium. Hepatocytes were washed twice as above, then suspended at 3.5×10^5/ml in WME and cultured in tissue culture plates in WME medium supplemented with insulin and gentamicin in a humidified atmosphere of 5% CO2 and 95% air at 37° C. After 3 h, the medium was changed and cells were incubated overnight in L-15 medium supplemented with insulin and gentamicin. Plating efficiency. Plating efficiency was determined by measuring the LDH activity in cells prior to seeding and in 3 and 24 h-old cultures. Plating efficiency was defined as the LDH activity in 24 h-old cultures divided by the LDH activity in pre-culture cells.

[4] = test system: rat hepatocytes; test: Adherence and cellular morphology by confocal microscopy; assay type: cell-based; conditions: 24 h after seeding, FIG. 3
Protocol: Adherence and cellular morphology. Adherence and cellular morphology were evaluated by confocal microscopy. For the confocal microscopy observations, tissue culture plates coated with collagen were used. All analyses were carried out using the confocal microscope MRC1024 from BioRad (Microscience, Cambridge, Mass.) equipped with an argon laser (excitation at 488 nm) combined with an inverted microscope Eclipse Model TE 3000 (Nikon, Montreal, QC) with objectives of 40× Hoffman.

[5] = test system: rat hepatocytes; test: Albumin secretion by sandwich ELISA; assay type: cell-based; conditions: after 4 days in culture; FIG. 4A
Protocol: Determination of albumin secretion. Albumin secretion from hepatocytes was quantified every 24 h, until 96 h, in different hepatocyte culture media by the sandwich enzyme-linked immunosorbent assay (ELISA) according to Uotila et al. (19), with minor modifications (20). Briefly, 96-well plates (Nunc, Napierville, Ill.) were coated with anti-rat albumin rabbit antiserum (1 μg/ml). The plates were incubated for 30 min at room temperature (RT), then at 4° C. overnight, washed with phosphate buffered saline (PBS), blocked for 30 min at RT with 5% FBS in PBS, and then rewashed with PBS. Serial dilutions of sample and albumin standard were added (200 μl/well). The plates were incubated for III at RT and washed with PBS supplemented with 0.05% Tween-20 (PBS-T). Thereafter, the secondary antibody (peroxidase-conjugated anti-rat albumin; 2 μg/ml) was added and the plates were incubated for 1 h at RT. After 3 washings with PBS-T, the plates were incubated with the substrate o-phenylendiamine (OPND) (0.1 M NaH2PO4, 1 mg/ml OPND, 0.4 μl/ml H2O2) for 30 min at RT in the dark. The reaction was stopped with 4 M H2SO4. Albumin concentrations were determined at 550 nm using a standard curve ranging from 0 to 250 ng/dl of rat albumin using an ELISA reader ([sequence]luor Plus™, Tecan, Calif.).

[6] = test system: rat hepatocytes; test: Ammonium detoxification to urea (urea determination); assay type: cell-based; conditions: after 4 days in culture; FIG. 4B
Protocol: Urea determination. To evaluate the hepatocyte-mediated biotransformation of ammonia to urea, seeded hepatocytes were exposed to L-15 culture medium containing 10 mM NH4Cl. Samples of media were collected at the beginning and after 24 h intervals of exposure to ammonia, during 3 days. Urea concentration in the samples was measured calorimetrically using the urea nitrogen reagent set (BioTron Diagnostics, Hemet, Calif.) and an ELISA reader at 540 nm. Concentrations of urea were determined using a standard curve ranging from 0 to 45 mg/dl of urea. The results are presented as μg urea/10^6 cells.

[7] = test system: CYP1A1; test: EROD assay after 24 h induction with benzo-a-pyrene in cryopreserved hepatocytes; assay type: cell-based, rat; conditions: 48 h after seeding, FIG. 5A
Protocol: (§1) Enzymatic activity and protein expression of cytochrome P450 isoforms. CYP1A1 and 2B enzymatic activities were measured in hepatocyte cultures induced with benzo-a-pyrene (10 μM). Cells were washed 2 times with PBS and the substrates EROD (8 μM) or PROD (17 μM) (λexc: 530 nm; λem: 585 nm) were added to the culture dishes and incubated for 1 h. The supernatant (300 μl) was mixed with 200 μl of ETOH and the activity in 200 μl of the mixture was measured using an ELISA reader at 585 nm. Enzymatic activity was determined using a standard curve ranging from 0 to 200 μM of resorufin.

[8] = test system: CYP2B; test: PROD assay after 24 h induction with benzo-a-pyrene in cryopreserved hepatocytes; assay type: cell-based, rat; conditions: 48 h after seeding, FIG. 5A
Protocol: as §1

C[S+](C)[O-] [DMSO, dimethyl sulfoxide]
Viability of rat hepatocytes after freezing [1]: 62.5% | Viability (LDH) of thawed hepatocytes in culture [2]: 60.2% | Plating efficiency [3]: 64.9 ± 1.7% | Cell-to-cell contacts [4]: no cell-cell contacts were detected | Albumin secretory activity maintained [5]: 48% | Initial detoxification activity maintained (urea production) [6]: 16% | Relative activity of P450 CYP1A1 compared to fresh hepatocytes [7]: decreased slightly | Relative activity of P450 CYP2B compared to fresh hepatocytes [8]: decreased slightly
